PubChem BioAssay AID1963971 (Molecular Pharmacology Branch, DTP, NCI, 2024)

Tested on: 953936-095-R-J2-PDC spheroids with HUVEC/MSC, viability
Test: Anticancer human tumor 953936-095-R-J2-PDC patient-derived cervical squamous cell carcinoma cell line growth inhibition [PI3K]
Conditions: for IC50: curve of first compound; for viability, T/C: stronger effect = lower value
Procedure, shortened: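 Stroma-containing spheroids: tumor line, pooled-donor HUVEC, hMSC. Treatments: targeted agents with PI3K inhibitors. Dosing: clinically relevant, half-log spacing, 10 microM ceiling without known Cmax. Read-out: cell viability.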

[1] = second compound 0.0316 µM, first compound 0.0316 µM
[2] = second compound 0.0316 µM, first compound 0.1 µM
[3] = second compound 0.0316 µM, first compound 0.316 µM
[4] = second compound 0.0316 µM, first compound 1 µM
[5] = second compound 0.0316 µM, first compound 3.16 µM
[6] = second compound 0.0316 µM, first compound 10 µM
[7] = second compound 0.1 µM, first compound 0.0316 µM
[8] = second compound 0.1 µM, first compound 0.1 µM
[9] = second compound 0.1 µM, first compound 0.316 µM
[10] = second compound 0.1 µM, first compound 1 µM
[11] = second compound 0.1 µM, first compound 3.16 µM
[12] = second compound 0.1 µM, first compound 10 µM
[13] = second compound 0.316 µM, first compound 0.0316 µM
[14] = second compound 0.316 µM, first compound 0.1 µM
[15] = second compound 0.316 µM, first compound 0.316 µM
[16] = second compound 0.316 µM, first compound 1 µM
[17] = second compound 0.316 µM, first compound 3.16 µM
[18] = second compound 0.316 µM, first compound 10 µM
[19] = second compound 1 µM, first compound 0.0316 µM
[20] = second compound 1 µM, first compound 0.1 µM
[21] = second compound 1 µM, first compound 0.316 µM
[22] = second compound 1 µM, first compound 1 µM
[23] = second compound 1 µM, first compound 3.16 µM
[24] = second compound 1 µM, first compound 10 µM
[25] = second compound 3.16 µM, first compound 0.0316 µM
[26] = second compound 3.16 µM, first compound 0.1 µM
[27] = second compound 3.16 µM, first compound 0.316 µM
[28] = second compound 3.16 µM, first compound 1 µM
[29] = second compound 3.16 µM, first compound 3.16 µM
[30] = second compound 3.16 µM, first compound 10 µM
[31] = second compound 10 µM, first compound 0.0316 µM
[32] = second compound 10 µM, first compound 0.1 µM
[33] = second compound 10 µM, first compound 0.316 µM
[34] = second compound 10 µM, first compound 1 µM
[35] = second compound 10 µM, first compound 3.16 µM
[36] = second compound 10 µM, first compound 10 µM
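Further: spheroids exposed to compounds for seven days before read-out.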

`CC(C)NCC(C(=O)N1CCN(c2ncnc3c2C(C)CC3O)CC1)c1ccc(Cl)cc1` (stereo not drawn) + CC(Nc1ncnc2nc[nH]c12)c1cc2cccc(Cl)c2c(=O)n1-c1ccccc1 showed an IC50 (second compound 0.0316 µM) of 952 nM, an IC50 (second compound 0.1 µM) of 1010 nM and an IC50 (second compound 0.316 µM) of 922 nM. For the same compound, the IC50 (second compound 1 µM) was 1050 nM, the IC50 (second compound 3.16 µM) was 873 nM and the IC50 (second compound 10 µM) was 393 nM. For the same compound, the viability, T/C [1] was 94.7%, the viability, T/C [2] was 99.8% and the viability, T/C [3] was 77.9%. It also gave a viability, T/C [4] of 49.6%, a viability, T/C [5] of 22.6% and a viability, T/C [6] of 14.1%. The viability, T/C [7] was 100%, the viability, T/C [8] was 104% and the viability, T/C [9] was 75.8%. It also gave a viability, T/C [10] of 52.5%, a viability, T/C [11] of 24.3% and a viability, T/C [12] of 14.3%. For the same compound, the viability, T/C [13] was 111%, the viability, T/C [14] was 98.1% and the viability, T/C [15] was 82%. The viability, T/C [16] was 47.9%, the viability, T/C [17] was 23.1% and the viability, T/C [18] was 17.1%. The viability, T/C [19] was 104%, the viability, T/C [20] was 82.9% and the viability, T/C [21] was 73.5%. The viability, T/C [22] was 53.9%, the viability, T/C [23] was 26.2% and the viability, T/C [24] was 13.4%. The viability, T/C [25] was 79.7%, the viability, T/C [26] was 79.1% and the viability, T/C [27] was 72.9%. The viability, T/C [28] was 45.7%, the viability, T/C [29] was 23.6% and the viability, T/C [30] was 12.7%. For the same compound, the viability, T/C [31] was 61.1%, the viability, T/C [32] was 58.3% and the viability, T/C [33] was 51.7%. The viability, T/C [34] was 40%, the viability, T/C [35] was 20.1% and the viability, T/C [36] was 9.46%.
`CCN1CCN(Cc2ccc(Nc3ncc(F)c(-c4cc(F)c5nc(C)n(C(C)C)c5c4)n3)nc2)CC1` + CC(Nc1ncnc2nc[nH]c12)c1cc2cccc(Cl)c2c(=O)n1-c1ccccc1 was tested, and the IC50 (second compound 0.0316 µM) was > 1000 nM, the IC50 (second compound 0.1 µM) was > 1000 nM and the IC50 (second compound 0.316 µM) was > 1000 nM. For the same compound, the IC50 (second compound 1 µM) was > 1000 nM, the IC50 (second compound 3.16 µM) was > 1000 nM and the IC50 (second compound 10 µM) was > 1000 nM. For the same compound, the viability, T/C (second compound 0.0316 µM, first compound 0.00316 µM) was 102%, the viability, T/C (second compound 0.0316 µM, first compound 0.01 µM) was 101% and the viability, T/C [1] was 96.1%. The viability, T/C [2] was 103%, the viability, T/C [3] was 87.5% and the viability, T/C [4] was 89.1%. It also gave a viability, T/C (second compound 0.1 µM, first compound 0.00316 µM) of 104%, a viability, T/C (second compound 0.1 µM, first compound 0.01 µM) of 106% and a viability, T/C [7] of 111%. For the same compound, the viability, T/C [8] was 93%, the viability, T/C [9] was 86% and the viability, T/C [10] was 81.3%. For the same compound, the viability, T/C (second compound 0.316 µM, first compound 0.00316 µM) was 100%, the viability, T/C (second compound 0.316 µM, first compound 0.01 µM) was 108% and the viability, T/C [13] was 103%. It also gave a viability, T/C [14] of 90.5%, a viability, T/C [15] of 83.8% and a viability, T/C [16] of 79.2%. For the same compound, the viability, T/C (second compound 1 µM, first compound 0.00316 µM) was 97%, the viability, T/C (second compound 1 µM, first compound 0.01 µM) was 97.7% and the viability, T/C [19] was 104%. For the same compound, the viability, T/C [20] was 82.9%, the viability, T/C [21] was 76% and the viability, T/C [22] was 74.2%. It also gave a viability, T/C (second compound 3.16 µM, first compound 0.00316 µM) of 87.8%, a viability, T/C (second compound 3.16 µM, first compound 0.01 µM) of 78.6% and a viability, T/C [25] of 81.8%. For the same compound, the viability, T/C [26] was 73.9%, the viability, T/C [27] was 71.1% and the viability, T/C [28] was 64%. The viability, T/C (second compound 10 µM, first compound 0.00316 µM) was 59.6%, the viability, T/C (second compound 10 µM, first compound 0.01 µM) was 57.2% and the viability, T/C [31] was 57.2%. For the same compound, the viability, T/C [32] was 62.1%, the viability, T/C [33] was 52.8% and the viability, T/C [34] was 49.8%.
`Cn1ncc(Cl)c1-c1cc(C(=O)NC(CN)Cc2cccc(F)c2)sc1Cl` (stereo not drawn) + CC(Nc1ncnc2nc[nH]c12)c1cc2cccc(Cl)c2c(=O)n1-c1ccccc1 gave an IC50 (second compound 0.0316 µM) of 630 nM, an IC50 (second compound 0.1 µM) of 617 nM and an IC50 (second compound 0.316 µM) of 547 nM. The IC50 (second compound 1 µM) was 490 nM, the IC50 (second compound 3.16 µM) was 467 nM and the IC50 (second compound 10 µM) was 146 nM. For the same compound, the viability, T/C [1] was 96.5%, the viability, T/C [2] was 90.2% and the viability, T/C [3] was 67.9%. For the same compound, the viability, T/C [4] was 36.9%, the viability, T/C [5] was 21.8% and the viability, T/C [6] was 12%. The viability, T/C [7] was 95.2%, the viability, T/C [8] was 90% and the viability, T/C [9] was 67%. For the same compound, the viability, T/C [10] was 37.5%, the viability, T/C [11] was 20% and the viability, T/C [12] was 14.9%. For the same compound, the viability, T/C [13] was 94.1%, the viability, T/C [14] was 81.6% and the viability, T/C [15] was 58.4%. It also gave a viability, T/C [16] of 40%, a viability, T/C [17] of 22.4% and a viability, T/C [18] of 12.6%. For the same compound, the viability, T/C [19] was 95.5%, the viability, T/C [20] was 83.5% and the viability, T/C [21] was 58.1%. For the same compound, the viability, T/C [22] was 36.3%, the viability, T/C [23] was 18.1% and the viability, T/C [24] was 13.5%. It also gave a viability, T/C [25] of 82.3%, a viability, T/C [26] of 77.8% and a viability, T/C [27] of 56.7%. For the same compound, the viability, T/C [28] was 34.4%, the viability, T/C [29] was 18% and the viability, T/C [30] was 8.95%. For the same compound, the viability, T/C [31] was 55.5%, the viability, T/C [32] was 54.5% and the viability, T/C [33] was 42.9%. It also gave a viability, T/C [34] of 30.5%, a viability, T/C [35] of 14.6% and a viability, T/C [36] of 5.78%.
`Cn1nccc1Nc1nccc(-c2ccn(C(CO)c3ccc(Cl)c(F)c3)c(=O)c2)n1` (stereo not drawn) + CC(Nc1ncnc2nc[nH]c12)c1cc2cccc(Cl)c2c(=O)n1-c1ccccc1 was tested, and the IC50 (second compound 0.0316 µM) was > 10000 nM, the IC50 (second compound 0.1 µM) was > 10000 nM and the IC50 (second compound 0.316 µM) was > 10000 nM. The IC50 (second compound 1 µM) was > 10000 nM, the IC50 (second compound 3.16 µM) was > 10000 nM and the IC50 (second compound 10 µM) was > 10000 nM. It also gave a viability, T/C [1] of 90.7%, a viability, T/C [2] of 100% and a viability, T/C [3] of 92%. For the same compound, the viability, T/C [4] was 102%, the viability, T/C [5] was 88.3% and the viability, T/C [6] was 80.1%. For the same compound, the viability, T/C [7] was 94.3%, the viability, T/C [8] was 90.6% and the viability, T/C [9] was 91%. For the same compound, the viability, T/C [10] was 90.8%, the viability, T/C [11] was 88% and the viability, T/C [12] was 66%. The viability, T/C [13] was 98.2%, the viability, T/C [14] was 97.2% and the viability, T/C [15] was 91.6%. It also gave a viability, T/C [16] of 83.8%, a viability, T/C [17] of 75.6% and a viability, T/C [18] of 73.6%. It also gave a viability, T/C [19] of 102%, a viability, T/C [20] of 76.9% and a viability, T/C [21] of 95.9%. It also gave a viability, T/C [22] of 86.1%, a viability, T/C [23] of 81.4% and a viability, T/C [24] of 82.4%. For the same compound, the viability, T/C [25] was 74.6%, the viability, T/C [26] was 69.9% and the viability, T/C [27] was 70.7%. It also gave a viability, T/C [28] of 76.4%, a viability, T/C [29] of 68.8% and a viability, T/C [30] of 77.3%. It also gave a viability, T/C [31] of 53.7%, a viability, T/C [32] of 52.3% and a viability, T/C [33] of 57.4%. The viability, T/C [34] was 51.6%, the viability, T/C [35] was 51.1% and the viability, T/C [36] was 56.9%.
